IC50 data for 49 molecules are collected here from patent publication US11168102B1, “Bicyclic heteroaryl compounds and uses thereof” (Revolution Medicines, Inc., priority 2019, dated 2021).

The test system of the test is cellular pERK in PC-9 cells (EGFR Ex19Del). The test is described as follows: Potency assay: pERK (AlphaLISA SureFire Ultra p-ERK1/2) in PC-9 cells. In kind it is cell-based. Particulars: read-out: SOS1 pERK IC50. In general terms: In Alpha technology, singlet oxygen from a donor bead excites a nearby acceptor bead.
[1] abbreviates: PC-9 cells (EGFR Ex19Del), 1 hour incubation, AlphaLISA SureFire Ultra p-ERK1/2.
The mark [2] stands for this setting: Homo sapiens, PC-9, 1 h, PC-9 cells (EGFR Ex19Del), 1 hour incubation, AlphaLISA SureFire Ultra p-ERK1/2.

The term IC50 denotes the concentration at which inhibition is half-maximal.

Like-named read-outs stand apart in the source and are kept apart here. Bounds are passed on as bounds.

For `C[C@@H](Nc1ncnc2c1cc(C1(N)CCP(C)(=O)CC1)c(=O)n2C)c1cccc(C(F)F)c1F` (stereo partly shown) [Example 31-11], the 50% inhibitory concentration (IC50) under setting [1] came to 575 nM.
With `C[C@@H](Nc1ncnc2c1cc(C1CCS(=O)(=NC3COC3)CC1)c(=O)n2C)c1cccc(C(F)F)c1F` (stereo partly drawn) [Example 60, 4-[[(1R)-1-[3-(difluoromethyl)-2-fluoro-phenyl]ethyl]amino]-8-methyl-6-[1-(oxetan-3-ylimino)-1-oxo-thian-4-yl]pyrido[2,3-d]pyrimidin-7-one], the half-maximal inhibitory concentration (IC50) under setting [2] was 23.1 nM.
On the same count and under the same terms, to `COC1(c2cc3c(N[C@H](C)c4cccc(C(F)F)c4F)ncnc3n(C)c2=O)CCCN(C(C)=O)CC1` (stereo partly shown) [Example 32-39] belongs 54.2 nM.
On the same count and under the same terms, to `COC1(c2cc3c(N[C@H](C)c4cccc(C(F)F)c4F)ncnc3n(C)c2=O)C[C@@H]2C[C@H]1CN2C(C)=O` (stereo partly shown) [Example 32-18] belongs 947 nM; to `C[C@@H](Nc1ncnc2c1cc(C1(OC3COC3)CCS(=O)(=O)CC1)c(=O)n2C)c1cccc(C(F)F)c1F` [Example 32-57], 83.9 nM; to `COC1(c2cc3c(N[C@H](C)c4cccc(C(F)F)c4F)ncnc3n(C)c2=O)CCS(=O)(=O)CC1` [Example 32, 4-(4-{[(1R)-1-[3-(difluoro-methyl)-2-fluorophenyl]ethyl]amino}-8-methyl-7-oxo-7H,8H-pyrido[2,3-d]pyrimidin-6-yl)-4-methoxy-λ1^6-thiane-1,1-dione], 58.4 nM.
Same read-out and setting: under `C[C@@H](Nc1ncnc2c1cc(C1=CCS(=O)(=O)CC1)c(=O)n2C)c1cccc(C(F)(F)C#N)c1F` [Example 41, 2-{3-[(1R)-1-{[6-(1,1-dioxo-3,6-dihydro-2H-1λ^6-thiopyran-4-yl)-8-methyl-7-oxo-7H,8H-pyrido[2,3-d]pyrimidin-4-yl]amino}ethyl]-2-fluorophenyl}-2,2-difluoroacetonitrile] stands 4480 nM.
In the case of `C[C@@H](Nc1ncnc2c1cc(C1(C#N)CCC3(CC1)CS(=O)(=O)C3)c(=O)n2C)c1cccc(C(F)F)c1F` [Example 36-8], the IC50 under setting [2] is 38.8 nM.
Same read-out and setting: to `CC(=O)N1CC=C(c2cc3c(N[C@H](C)c4cccc(C(C)(F)F)c4F)ncnc3n(C)c2=O)CC1` [Example 1-20] belongs 78.5 nM.
Regarding `COC1(c2cc3c(C[C@H](C)c4cccc(C(F)F)c4F)ncnc3n(C)c2=O)CC2(C1)CS(=O)(=NC1CC1)C2` (stereo partly shown) [Example 68-3], the concentration for half-maximal inhibition (IC50) under setting [1] was determined as 100 nM.
Turning to `Cc1nc(N[C@H](C)c2cccc(C(F)(F)CO)c2)c2cc(C3=CCNCC3)c(=O)n(C)c2n1` [Example 4, (R)-4-((1-(3-(1,1-difluoro-2-hydroxyethyl)phenyl)ethyl)amino)-2,8-dimethyl-6-(1,2,3,6-tetrahydropyridin-4-yl)pyrido[2,3-d]pyrimidin-7(8H)-one], under setting [2], the 50% inhibitory concentration (IC50) turned out to be 481 nM.
As for `CC(=O)N1CC[C@H](c2cc3c(N[C@H](C)c4cccc(C(F)F)c4F)ncnc3n(C)c2=O)C1` [Example 33-15], the IC50 under setting [2] was determined as 113 nM.
Regarding `C[C@@H](Nc1ncnc2c1cc(C(=O)N1CCC[C@@H]1c1nnn[nH]1)c(=O)n2C)c1cccc(C(F)F)c1F` [Example 26-39], under setting [2], the IC50 is more than 10000 nM.
As for `COC1(c2cc3c(N[C@H](C)c4cccc(C(F)F)c4F)ncnc3n(C)c2=O)CCP(C)(=O)CC1` (stereo partly shown) [Example 32-46], under setting [1], the IC50 is 148 nM.
The same measure, in the same setting: under `COC1(c2cc3c(N[C@H](C)c4cccc(C(F)F)c4F)ncnc3n(C)c2=O)CCS(=O)(=O)C(C)C1` (stereo partly shown) [Example 32-65] stands 50.3 nM.
For the molecule `C[C@@H](Nc1ncnc2c1cc(C1(C#N)CCN(C)CC1)c(=O)n2C)c1cccc(C(F)F)c1F` [Example 36-2], the IC50 (Homo sapiens, PC-9, 1 h) stood at 63 nM.
Consider `C[C@@H](Nc1ncnc2c1cc(C(=O)N1CCC13CS(=O)(=O)C3)c(=O)n2C)c1cccc(C(F)F)c1F` [Example 26-52], for which, under setting [2], the IC50 was 152 nM.
As for `CN=S1(=O)CCC(c2cc3c(N[C@H](C)c4cccc(C(F)F)c4F)ncnc3n(C)c2=O)CC1` (single isomer, unassigned) [Example 64], the half-inhibitory concentration (IC50) under setting [1] came to 131 nM.
The same measure, in the same setting: under `C[C@@H](Nc1ncnc2c1cc(C1(C#N)CCS(=O)(=O)C1)c(=O)n2C)c1cccc(C(F)F)c1F` (stereo partly shown) [Example 36-15] stands 58.9 nM.
With `C[C@@H](Nc1ncnc2c1cc(C1=CCN(C3COC3)CC1)c(=O)n2C)c1cccc(C(F)F)c1F` [Example 1-22], the 50% inhibitory concentration (IC50) under setting [2] worked out at 416 nM.
On to `COC1(c2cc3c(N[C@H](C)c4cccc(C(F)F)c4F)ncnc3n(C)c2=O)CC2(C1)CS(=O)(=O)C2` [Example 32-5], for which, under setting [2], the IC50 worked out at 35.7 nM.
As for `CC(=O)N1CCC2(c3cc4c(N[C@H](C)c5cccc(C(F)F)c5F)ncnc4n(C)c3=O)CC2C1` (single isomer, unassigned) [Example 54-1], the IC50 under setting [1] is 53.7 nM.
On to `CO[C@@]1(c2cc3c(N[C@H](C)c4cccc(C(F)F)c4F)ncnc3n(C)c2=O)CCN(S(C)(=O)=O)C1` [Example 32-17], for which the IC50 under setting [2] was 29.9 nM.
Still for that read-out and setting: under `COC1(c2cc3c(N[C@H](C)c4cccc(C(F)F)c4F)ncnc3n(C)c2=O)C[C@@H](C)N(C(C)=O)C1` (stereo partly shown) [Example 32-37] stands 11.8 nM; under `C[C@@H](Nc1ncnc2c1cc(C(=O)N1CC3CCC(C1)O3)c(=O)n2C)c1cccc(C(F)F)c1F` [Example 26-19], 295 nM; under `COC1(c2cc3c(N[C@H](C)c4cccc(C(F)F)c4F)ncnc3n(C)c2=O)CCN(C(=O)C2CC2)CC1` [Example 32-11], 34.5 nM.
Still for that read-out and setting: to `C[C@@H](Nc1ncnc2c1cc(C1(N)CS(=O)(=O)C1)c(=O)n2C)c1cccc(C(F)F)c1F` [Example 31-6] belongs 191 nM; to `CC(=O)N1CCC(c2cc3c(N[C@H](C)c4cc(C(F)(F)F)cc(N)n4)ncnc3n(C)c2=O)CC1` [Example 44, 6-(1-acetyl-4-piperidyl)-4-[1-[6-amino-4-(trifluoromethyl)-2-pyridyl]ethylamino]-8-methyl-pyrido[2,3-d]pyrimidin-7-one], 179 nM; to `C[C@@H](Nc1ncnc2c1cc(C(=O)N1CC(N3CC(C)(O)C3)C1)c(=O)n2C)c1cccc(C(F)F)c1F` [Example 26-45], 521 nM.
On the same count and under the same terms, to `[2H]C(=O)N1CCC(c2cc3c(N[C@H](C)c4cccc(C(F)F)c4F)ncnc3n(C)c2=O)CC1` [Example 33-25] belongs 73.8 nM; to `C[C@@H](Nc1ncnc2c1cc(C1(OC3CC3)CCS(=O)(=O)CC1)c(=O)n2C)c1cccc(C(F)F)c1F` [Example 32-27], 87.9 nM; to `C[C@@H](Nc1ncnc2c1cc(C1=CCOCC1)c(=O)n2C)c1cccc(C(F)(F)F)c1` [Example 5, (R)-6-(3,6-dihydro-2H-pyran-4-yl)-8-methyl-4-((1-(3-(trifluoromethyl)phenyl)ethyl)amino)pyrido[2,3-d]pyrimidin-7(8H)-one], 134 nM.
For `CC1CC(c2cc3c(N[C@H](C)c4cccc(C(F)F)c4F)ncnc3n(C)c2=O)CCS1(=O)=O` (stereo partly shown) [Example 33-13], the concentration for half-maximal inhibition (IC50) under setting [1] is 21 nM.
For the molecule `C[C@@H](Nc1ncnc2c1cc(C(=O)N1CCOCC13COC3)c(=O)n2C)c1cccc(C(F)F)c1F` [Example 26-35], the half-maximal inhibitory concentration (IC50) under setting [2] came out at 193 nM.
Still for that read-out and setting: to `C[C@@H](Nc1ncnc2c1cc(C1CCN(S(C)(=O)=O)C1)c(=O)n2C)c1cccc(C(F)F)c1F` (stereo partly shown) [Example 33-10] belongs 335 nM.
For `C[C@@H](Nc1ncnc2c1cc(C1=CC[S+]([O-])CC1)c(=O)n2C)c1cccc(C(F)F)c1F` (stereo partly drawn) [Example 22, 4-(((R)-1-(3-(difluoromethyl)-2-fluorophenyl)ethyl)amino)-8-methyl-6-(1-oxido-3,6-dihydro-2H-thiopyran-4-yl)pyrido[2,3-d]pyrimidin-7(8H)-one], the half-inhibitory concentration (IC50) under setting [2] was determined as 122 nM.
Consider `COC1(c2cc3c(N[C@H](C)c4cccc(C(F)F)c4F)ncnc3n(C)c2=O)CCS(=O)(=NC2CC2)CC1` (single isomer, unassigned) [Example 68], for which the IC50 under setting [1] is 201 nM.
On to `COC1(c2cc3c(N[C@H](C)c4cccc(C(F)F)c4F)ncnc3n(C)c2=O)CCN(C)CC1` [Example 32-3], for which the IC50 (Homo sapiens, PC-9, 1 h) was found to be 2240 nM.
`C[C@H](Nc1ncnc2c1cc(C1=CCS(=O)(=O)CC1)c(=O)n2C)c1cccc(C(F)(F)C#N)c1F` [Example 41-1]: the IC50 under setting [2] was more than 10000 nM.
Take `CC(=O)NC12CC(c3cc4c(N[C@H](C)c5cccc(C(F)F)c5F)ncnc4n(C)c3=O)(C1)C2` [Example 70, N-[3-(4-{[(1R)-1-[3-(difluoromethyl)-2-fluorophenyl]ethyl]amino}-8-methyl-7-oxo-7H,8H-pyrido[2,3-d]pyrimidin-6-yl)bicyclo[1.1.1]pentan-1-yl]acetamide]: the IC50 under setting [2] came to 121 nM.
The same measure, in the same setting: to `CC(=O)N1CCC(OC2CC2)(c2cc3c(N[C@H](C)c4cccc(C(F)F)c4F)ncnc3n(C)c2=O)CC1` [Example 32-44] belongs 32.1 nM; to `COC1(c2cc3c(N[C@H](C)c4cccc(C(F)F)c4F)ncnc3n(C)c2=O)CC2(CN(C(C)=O)C2)C1` [Example 32-15], 49.3 nM.
For `CN=S1(=O)CCC(c2cc3c(N[C@H](C)c4cccc(C(F)F)c4F)ncnc3n(C)c2=O)CC1` (single isomer, unassigned) [Example 64-3], under setting [1], the IC50 was 58.3 nM.
`CO[C@]1(c2cc3c(N[C@H](C)c4cccc(C(F)F)c4F)nc(C)nc3n(C)c2=O)CCN(C(C)=O)C1` [Example 32-62]: the 50% inhibitory concentration (IC50) under setting [2] stood at 10.8 nM.
Still for that read-out and setting: under `C[C@@H](Nc1ncnc2c1cc(C1=CC[P@@](C)(=O)CC1)c(=O)n2C)c1cccc(C(F)F)c1F` [Example 1-33] stands 201 nM; under `COC1(c2cc3c(N[C@H](C)c4cccc(C(F)F)c4F)ncnc3n(C)c2=O)C2CC1CN(C(C)=O)C2` (stereo partly shown) [Example 32-25], 1440 nM.
The same measure, in the same setting: under `CC(=O)N1CC2(CCN2C(=O)c2cc3c(N[C@H](C)c4cccc(C(F)F)c4F)ncnc3n(C)c2=O)C1` [Example 26-51] stands 445 nM; under `COCCOC1(c2cc3c(N[C@H](C)c4cccc(C(F)F)c4F)ncnc3n(C)c2=O)CCS(=O)(=O)CC1` [Example 32-54], 40.2 nM.
Same read-out and setting: to `CO[C@]1(c2cc3c(N[C@H](C)c4cccc(C(F)F)c4F)ncnc3n(C)c2=O)CCN(C(C)=O)[C@@H](C)C1` [Example 32-31] belongs 10.1 nM.
